Results as given in ChEMBL document CHEMBL1201862, “PubChem BioAssay data set” (2004).
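Following 48 hours of exposure in 96-well plates, responses at five concentrations were used to interpolate endpoints linearly. GI50 is the concentration that inhibits growth by half.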 The source made the active and inactive calls. Cut-off read from the data, not from the text of the source: active = GI50 up to about 1.1 µM and inactive = higher.

Legend:
Experiment in all cases: NCI tumour cell line growth inhibition, 48 h
SN12C = system: SN12C
A549 = system: A549
T47D = system: T47D
HOP-62 = system: HOP-62
MDA-MB-231 = system: MDA-MB-231
SR = system: SR
SW-620 = system: SW-620
CCRF-CEM = system: CCRF-CEM
LOX IMVI = system: LOX IMVI
OVCAR-8 = system: OVCAR-8
EKVX = system: EKVX
MOLT-4 = system: MOLT-4
HT-29 = system: HT-29
UO-31 = system: UO-31
SF-268 = system: SF-268
Hs-578T = system: Hs-578T
HL-60 = system: HL-60
Malme-3M = system: Malme-3M
NCI-H460 = system: NCI-H460
MDA-N = system: MDA-N

| Compound | GI50 (SN12C) | GI50 (A549) | GI50 (T47D) | GI50 (HOP-62) | GI50 (MDA-MB-231) | GI50 (SR) | GI50 (SW-620) | GI50 (CCRF-CEM) | GI50 (LOX IMVI) | GI50 (OVCAR-8) | GI50 (EKVX) | GI50 (MOLT-4) | GI50 (HT-29) | GI50 (UO-31) | GI50 (SF-268) | GI50 (Hs-578T) | GI50 (HL-60) | GI50 (Malme-3M) | GI50 (NCI-H460) | GI50 (MDA-N) |
| --- | --- | --- | --- | --- | --- | --- | --- | --- | --- | --- | --- | --- | --- | --- | --- | --- | --- | --- | --- | --- |
| O=c1nc(Oc2c(F)c(F)c(F)c(F)c2F)ccn1C1OC(CO)C(O)C1O (configuration not stated) | > 100 µM (inactive) | > 100 µM (inactive) | > 100 µM (inactive) | > 100 µM (inactive) | > 100 µM (inactive) | 58.1 µM (inactive) | > 100 µM (inactive) | > 100 µM (inactive) | > 100 µM (inactive) | > 100 µM (inactive) | > 100 µM (inactive) | 43.9 µM (inactive) | > 100 µM (inactive) | > 100 µM (inactive) | > 100 µM (inactive) | > 100 µM (inactive) |  |  |  |  |
| Cc1[nH]nc(C(=O)N/N=C/c2cccs2)c1/N=N\N(C)C | 22 µM (inactive) | 10.5 µM (inactive) | 9.12 µM (inactive) | 17 µM (inactive) | 23.1 µM (inactive) |  | 15.3 µM (inactive) | 2.52 µM (inactive) | 4.3 µM (inactive) | 11.6 µM (inactive) | 39.4 µM (inactive) | 3.75 µM (inactive) | 3.31 µM (inactive) | 2.49 µM (inactive) | 9.4 µM (inactive) | 34.5 µM (inactive) | 1.99 µM (inactive) | 21.4 µM (inactive) | 3.43 µM (inactive) |  |
| COC(OC)c1cccnc1C | > 100 µM (inactive) | > 100 µM (inactive) |  | > 100 µM (inactive) |  | > 100 µM (inactive) | > 100 µM (inactive) | > 100 µM (inactive) | > 100 µM (inactive) | > 100 µM (inactive) | > 100 µM (inactive) | > 100 µM (inactive) | > 100 µM (inactive) | > 100 µM (inactive) | > 100 µM (inactive) |  | > 100 µM (inactive) | > 100 µM (inactive) | > 100 µM (inactive) |  |
| CCOC(=O)[C@@]1(C)CC(O)C(=O)N1C (some centres not stated) | > 100 µM (inactive) | > 100 µM (inactive) | > 100 µM (inactive) | > 100 µM (inactive) | > 100 µM (inactive) | > 100 µM (inactive) | > 100 µM (inactive) | > 100 µM (inactive) | > 100 µM (inactive) | > 100 µM (inactive) | > 100 µM (inactive) | > 100 µM (inactive) | > 100 µM (inactive) | > 100 µM (inactive) | > 100 µM (inactive) | > 100 µM (inactive) | > 100 µM (inactive) | > 100 µM (inactive) |  |  |
| COc1cc2c(cc1OCCN1CCN(CCOc3cc4c(cc3OC)C(=O)N3CCC[C@H]3C=N4)CC1)N=C[C@@H]1CCCN1C2=O | 9.46 µM (inactive) | > 88.9 µM (inactive) | 25.4 µM (inactive) | 30.5 µM (inactive) | 17.6 µM (inactive) | 0.362 µM (active) | 19.2 µM (inactive) |  |  | 35.3 µM (inactive) | > 96.6 µM (inactive) | 2.06 µM (inactive) | 36 µM (inactive) | 35.8 µM (inactive) | 13.1 µM (inactive) | 41.6 µM (inactive) | 4.3 µM (inactive) | 9.14 µM (inactive) | 13.5 µM (inactive) |  |
| Cc1cn([C@@H]2C[C@H]2CO)c(=O)[nH]c1=O | > 100 µM (inactive) | > 100 µM (inactive) | > 100 µM (inactive) | > 100 µM (inactive) | > 100 µM (inactive) | > 100 µM (inactive) | > 100 µM (inactive) | > 100 µM (inactive) | > 100 µM (inactive) | > 100 µM (inactive) | > 100 µM (inactive) | > 100 µM (inactive) | > 100 µM (inactive) | 80.4 µM (inactive) | > 100 µM (inactive) |  | > 100 µM (inactive) | > 100 µM (inactive) | > 100 µM (inactive) | > 100 µM (inactive) |
| Clc1ccc(OCc2nnc(CCCCCCCCc3nnc(COc4ccc(Cl)cc4)o3)o2)cc1 | 43.8 µM (inactive) | 72.1 µM (inactive) |  |  | 48 µM (inactive) |  | > 100 µM (inactive) |  |  |  | > 100 µM (inactive) | 14.8 µM (inactive) | > 100 µM (inactive) | > 100 µM (inactive) | 32.3 µM (inactive) |  |  | 3.58 µM (inactive) | > 100 µM (inactive) | > 100 µM (inactive) |
| O=c1n(-c2ccccc2)c(=O)n2c(-c3ccccc3)c(-c3ccccc3)n12 | > 100 µM (inactive) | > 100 µM (inactive) |  | > 100 µM (inactive) | > 100 µM (inactive) | 27 µM (inactive) | > 100 µM (inactive) | 31.4 µM (inactive) | 72.1 µM (inactive) | > 100 µM (inactive) | > 100 µM (inactive) | 37.4 µM (inactive) | 70.1 µM (inactive) | 66.4 µM (inactive) |  | > 100 µM (inactive) | 33.4 µM (inactive) | > 100 µM (inactive) | 91 µM (inactive) | > 100 µM (inactive) |
| NS(=O)(=O)c1nnc(NC(=O)N(c2ccccc2)c2ccccc2)s1 | 15.8 µM (inactive) | 26.3 µM (inactive) |  | 27.2 µM (inactive) | 70.1 µM (inactive) |  | 29.9 µM (inactive) | 20.1 µM (inactive) | 15.9 µM (inactive) | 19.9 µM (inactive) | 24.8 µM (inactive) | 21.1 µM (inactive) | 27.6 µM (inactive) | 24 µM (inactive) | 30.3 µM (inactive) | 25 µM (inactive) | 16.3 µM (inactive) | 21.2 µM (inactive) |  | 25.4 µM (inactive) |
| CSC1=N/C(=C\c2ccc(C)cc2)C(=O)N1CN1CCOCC1 | > 100 µM (inactive) | 92.3 µM (inactive) |  | 89.1 µM (inactive) | > 100 µM (inactive) | 69.3 µM (inactive) | 40 µM (inactive) | 41.4 µM (inactive) | 39.9 µM (inactive) | 45.6 µM (inactive) | 47.4 µM (inactive) | 28.9 µM (inactive) |  | 20.2 µM (inactive) | 47.6 µM (inactive) | 84.9 µM (inactive) | > 100 µM (inactive) | > 100 µM (inactive) |  | > 100 µM (inactive) |
| O=c1[nH]nc(Nc2ccccc2)c2nnn(C3CCCCC3)c12 | > 100 µM (inactive) | > 100 µM (inactive) |  | > 100 µM (inactive) | > 100 µM (inactive) | > 100 µM (inactive) |  | > 100 µM (inactive) | > 100 µM (inactive) | > 100 µM (inactive) | > 100 µM (inactive) | > 100 µM (inactive) | > 100 µM (inactive) | > 100 µM (inactive) |  |  | > 100 µM (inactive) | > 100 µM (inactive) | > 100 µM (inactive) | > 100 µM (inactive) |
| COC(=O)/C(=N\O)C(C(=O)C=C(C)C)C(=O)C(=O)Nc1ccccc1C (configuration not stated) | > 100 µM (inactive) | > 100 µM (inactive) |  | > 100 µM (inactive) |  | > 100 µM (inactive) | > 100 µM (inactive) | > 100 µM (inactive) | > 100 µM (inactive) | > 100 µM (inactive) | > 100 µM (inactive) | > 100 µM (inactive) | > 100 µM (inactive) | > 100 µM (inactive) | > 100 µM (inactive) |  | > 100 µM (inactive) | > 100 µM (inactive) | > 100 µM (inactive) |  |
| O=C(CN1CCOCC1)Nc1ccc2c(c1)C1Oc3ccccc3CC1CO2 (configuration not stated) | > 100 µM (inactive) | > 100 µM (inactive) | > 100 µM (inactive) | > 100 µM (inactive) | > 100 µM (inactive) | > 100 µM (inactive) | > 100 µM (inactive) | > 100 µM (inactive) | > 100 µM (inactive) | > 100 µM (inactive) | > 100 µM (inactive) | 88.1 µM (inactive) | > 100 µM (inactive) | > 100 µM (inactive) | > 100 µM (inactive) |  |  | > 100 µM (inactive) |  | > 100 µM (inactive) |
| Cc1nc2c(O)cc3c4c(=O)n(C)c(=O)n(C)c4n(Cc4ccccc4)c3c2nc1C | 19.9 µM (inactive) | 19.2 µM (inactive) |  | 17.6 µM (inactive) | 20.4 µM (inactive) | 24.4 µM (inactive) | 19.5 µM (inactive) | 4.99 µM (inactive) | 18.9 µM (inactive) | 18.3 µM (inactive) | 24.3 µM (inactive) | 24.5 µM (inactive) | 15.8 µM (inactive) | 17.6 µM (inactive) | 17.6 µM (inactive) | 26.5 µM (inactive) | 24.2 µM (inactive) | 18.7 µM (inactive) | 45.8 µM (inactive) | 18.4 µM (inactive) |
| Oc1c(/N=N/c2ccccc2)c2ccccc2c2ccc3ccccc3c12 | > 100 µM (inactive) | 43.2 µM (inactive) | > 100 µM (inactive) | 43.6 µM (inactive) | 78.3 µM (inactive) | 17.9 µM (inactive) | > 100 µM (inactive) | 43.9 µM (inactive) |  | 76.6 µM (inactive) | 50.4 µM (inactive) | 40.6 µM (inactive) | > 100 µM (inactive) | > 100 µM (inactive) | > 100 µM (inactive) | 62.8 µM (inactive) | 47.3 µM (inactive) | 48.3 µM (inactive) | > 100 µM (inactive) |  |
| C[Si](C)(OCCS(=O)(=O)O)OC(=C1S(=O)(=O)OCCOS1(=O)=O)c1cccc2ccccc12 | > 100 µM (inactive) | > 100 µM (inactive) |  | > 100 µM (inactive) | > 100 µM (inactive) | > 100 µM (inactive) | > 100 µM (inactive) | > 100 µM (inactive) | > 100 µM (inactive) | > 100 µM (inactive) | > 100 µM (inactive) | > 100 µM (inactive) | > 100 µM (inactive) | > 100 µM (inactive) | 64 µM (inactive) |  | 11.6 µM (inactive) | > 100 µM (inactive) | > 100 µM (inactive) | > 100 µM (inactive) |
